# Measurements from US9790188B2, “Benzimidazole derivatives and uses thereof” (Whitehead Institute for Biomedical Research, priority 2013, dated 2017).
# Entries after “also recorded” stand apart in the source; their conditions may differ.
# Columns and labels:
# [1] = test system: TH-positive (dopaminergic) neurons; test: Primary ventral mesencephalic cultures transduced with A53T α-syn; type: cell-based, rat; settings: A53T α-syn adenovirus, 0.1 μM
# Description: Experiments aimed at monitoring dopaminergic cell viability in primary mesencephalic cultures were performed as described previously (7-9). Briefly, cells obtained from the midbrains of E17 rat embryos were plated at a density of 2.18×10^3 cells per mm^2 on a 48-well plate. Four days after plating, the cells were treated with cytosine arabinofuranoside (20 μM) to restrict the growth of glial cells. Three days later (7 days in vitro), the cells were transduced with an adenovirus encoding A53T α-syn, generated using the Invitrogen ViraPower Adenoviral Expression System (38), at a multiplicity of infection (MOI) of 15 in the absence or presence of ABI1 (0.1 μM). After a 72-h transduction period, the media was replaced with fresh media with or without ABI1 for an additional 24 h. […] MAP2- and TH-immunoreactive neurons were counted by an investigator blinded to the identity of the treatment conditions in at least ten randomly chosen observation fields (encompassing ˜800-1600 MAP2^+ neurons) per treatment using a Nikon TE2000-U inverted fluorescence microscope with a 20× objective. Relative dopaminergic cell viability was calculated as the percentage of MAP2-positive neurons that were also TH-positive and normalized by the value determined for control cells (set to 100%). […]
# [2] = test system: Bap2; test: Western blot of proteinA-tagged Bap2; type: cell-based, yeast; settings: Rsp5-dependent
# [3] = test system: WT yeast; test: Viable cells recovered after prolonged treatment at growth inhibitory concentrations
# [4] = molecular target: T1, Nedd4 (Homo sapiens, UniProt P46934); settings: pers. comm.; cited from earlier work
# T1 sequence (P46934 1-1319): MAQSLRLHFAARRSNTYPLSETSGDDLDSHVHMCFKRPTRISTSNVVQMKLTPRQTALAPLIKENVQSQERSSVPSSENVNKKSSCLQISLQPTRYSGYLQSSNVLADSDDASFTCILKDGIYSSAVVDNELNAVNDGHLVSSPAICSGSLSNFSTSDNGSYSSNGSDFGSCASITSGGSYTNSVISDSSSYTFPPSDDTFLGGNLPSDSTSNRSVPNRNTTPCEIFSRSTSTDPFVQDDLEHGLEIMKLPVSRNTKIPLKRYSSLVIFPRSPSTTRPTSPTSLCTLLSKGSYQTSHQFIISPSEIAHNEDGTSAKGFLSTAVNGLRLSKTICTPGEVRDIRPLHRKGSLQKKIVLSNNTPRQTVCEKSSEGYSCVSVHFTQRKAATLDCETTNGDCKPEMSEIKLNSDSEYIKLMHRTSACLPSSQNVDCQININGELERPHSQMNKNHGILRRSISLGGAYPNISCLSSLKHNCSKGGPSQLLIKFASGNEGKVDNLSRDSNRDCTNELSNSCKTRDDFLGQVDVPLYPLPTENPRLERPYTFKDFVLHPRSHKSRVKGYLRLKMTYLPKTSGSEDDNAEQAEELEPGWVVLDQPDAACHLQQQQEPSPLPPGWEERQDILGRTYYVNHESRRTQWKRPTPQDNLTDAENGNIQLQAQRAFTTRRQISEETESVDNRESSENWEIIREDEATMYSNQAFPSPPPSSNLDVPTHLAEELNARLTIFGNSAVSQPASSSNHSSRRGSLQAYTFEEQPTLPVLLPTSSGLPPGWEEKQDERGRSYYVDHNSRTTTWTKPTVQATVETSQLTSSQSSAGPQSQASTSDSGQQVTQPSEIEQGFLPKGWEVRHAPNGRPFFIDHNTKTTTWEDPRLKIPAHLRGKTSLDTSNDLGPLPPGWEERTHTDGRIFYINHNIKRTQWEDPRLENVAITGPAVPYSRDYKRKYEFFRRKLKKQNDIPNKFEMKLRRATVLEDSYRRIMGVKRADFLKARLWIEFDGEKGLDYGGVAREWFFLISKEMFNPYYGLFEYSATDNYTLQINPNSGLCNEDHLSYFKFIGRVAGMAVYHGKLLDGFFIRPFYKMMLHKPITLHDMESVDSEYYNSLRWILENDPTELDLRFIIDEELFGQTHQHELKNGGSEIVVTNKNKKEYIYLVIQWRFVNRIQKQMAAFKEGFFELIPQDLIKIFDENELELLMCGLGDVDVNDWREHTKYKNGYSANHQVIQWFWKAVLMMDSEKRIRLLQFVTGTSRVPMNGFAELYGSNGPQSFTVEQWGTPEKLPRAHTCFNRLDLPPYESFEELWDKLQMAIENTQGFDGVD
# [5] = molecular target: Rsp5p (Saccharomyces cerevisiae, UniProt P39940); settings: pers. comm.; cited from earlier work
# Chain of Rsp5p (P39940 whole entry): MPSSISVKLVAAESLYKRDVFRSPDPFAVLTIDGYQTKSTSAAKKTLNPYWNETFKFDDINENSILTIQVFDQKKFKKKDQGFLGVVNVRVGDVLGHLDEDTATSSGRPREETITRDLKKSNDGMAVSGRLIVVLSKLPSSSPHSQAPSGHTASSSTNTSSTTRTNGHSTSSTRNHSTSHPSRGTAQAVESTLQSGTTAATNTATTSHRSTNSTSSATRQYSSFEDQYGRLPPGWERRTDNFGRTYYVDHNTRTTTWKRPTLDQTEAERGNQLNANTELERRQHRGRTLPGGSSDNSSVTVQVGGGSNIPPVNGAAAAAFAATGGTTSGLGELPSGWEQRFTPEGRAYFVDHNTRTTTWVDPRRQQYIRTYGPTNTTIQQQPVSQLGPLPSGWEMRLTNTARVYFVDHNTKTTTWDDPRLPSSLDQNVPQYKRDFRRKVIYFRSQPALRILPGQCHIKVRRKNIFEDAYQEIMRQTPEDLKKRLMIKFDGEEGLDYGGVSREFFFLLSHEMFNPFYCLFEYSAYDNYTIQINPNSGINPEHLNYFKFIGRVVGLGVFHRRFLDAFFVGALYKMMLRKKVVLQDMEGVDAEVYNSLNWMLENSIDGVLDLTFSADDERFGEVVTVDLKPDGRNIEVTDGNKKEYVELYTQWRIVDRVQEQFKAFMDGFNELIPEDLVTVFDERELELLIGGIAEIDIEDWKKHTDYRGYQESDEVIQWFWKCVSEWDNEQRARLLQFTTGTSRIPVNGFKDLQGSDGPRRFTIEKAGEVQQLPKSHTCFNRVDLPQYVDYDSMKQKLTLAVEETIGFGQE
# [6] = test system: dopaminergic (DA) neurons; test: C. elegans model of α-syn toxicity; type: in vivo; settings: nematodes expressing α-syn and GFP in DA neurons
# Description: Drug treatments of the C. elegans α-syn model were performed as previously described (6). Briefly, age-synchronized worms were obtained by treating gravid adults with 2% sodium hyopchlorite and 0.5M NaOH to isolate embryos (36). Variable concentrations of ABI1 or 0.2% DMSO was applied to embryos suspended in M9 buffer (22 mM KH2PO4, […], 85 mM NaCl, 1 mM MgSO4) (time 0), and incubated at 25 C for 24 hours to obtain a synchronized L1 population. Worms were washed three times in distilled water and one additional rinse in M9 buffer. The synchronized L1 worms were plated on regular nematode growth media (NGM) plates seeded with 100 uL of Eschericia coli (OP50). Worms were then transferred every other day to new plates to insure food abundance and eliminate progeny contamination. Worms were then analyzed seven days post-hatching. Analyses were carried out according to the criteria previously described (37). In each case, ˜30-40 animals were scored for the percent of WT animals. Experiments were completed in triplicate and averages calculated. A one-way ANOVA and Tukey's test was used to determine significance.
# [7] = test system: α-syn foci; test: α-syn-GFP localization / foci microscopy in yeast; type: cell-based; settings: α-syn-expressing yeast
# Description: Logarithmic growing raffinose cultures were induced with galactose for five hours in the presence or absence of the indication concentration of ABI. Cells were centrifuged, media discarded, and then fixed with 4% paraformaldehyde in 1×PBS for 1 hr. The fixed culture was centrifuged, and the pellet resuspended in 0.4% paraformaldehyde in 1×PBS and kept at 4° C. Single plain images were taken at 100× magnification with a Nikon Eclipse Ti microscope.
compound,measurement,setting,value
"Cc1cccc(-n2cnc3cc(C(=O)NCc4ccccc4Cl)ccc32)c1 [ABI, N-(2-chlorobenzyl)-1-(m-tolyl)-1H-benzo[d]imidazole-5-carboxamide]",melting point,,129 to 131 °C
same,retraction of neuronal processes / neurite length,[1],markedly reduced the retraction of neuronal processes; also recorded: reversed
same,survival of TH-positive neurons (% of MAP2-positive neurons),[1],largely restored the survival; also recorded: reversed
same,Bap2 levels / degradation,[2],promotes Bap2 degradation
same,viability of cells,[3],retained full viability
same,ubiquitination of recombinant Nedd4 in vitro,[4],did not enhance ubiquitination
same,ubiquitination of recombinant Rsp5p in vitro,[5],did not enhance ubiquitination
same,rescue of DA neurons from α-syn toxicity,[6],"partial, yet highly significant, rescue"
same,accumulation of cytoplasmic α-syn foci / inclusions,[7],prevented the accumulation of cytoplasmic α-syn foci
